# According to ChEMBL document CHEMBL1201862, “PubChem BioAssay data set” (2004):
#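 How tested: cells in 96-well plates exposed to compound for 48 hours at five concentrations. GI50 marks 50% less growth.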 Calls of active or inactive are those of the source. No stated cut-off is given here; in the data, active = GI50 up to about 1.1 µM and inactive = higher.
# Key:
# Test in all cases: DTP human tumour cell line panel, 48 h
# [1] = system: UACC-62
# [2] = system: SF-539
# [3] = system: NCI/ADR-RES
# [4] = system: NCI-H226
# [5] = system: RPMI-8226
# [6] = system: M14
# [7] = system: MOLT-4
# [8] = system: HCC 2998
# [9] = system: A498
# [10] = system: HL-60
# [11] = system: TK-10
# [12] = system: SK-OV-3
# [13] = system: HOP-92
# [14] = system: EKVX
# [15] = system: SW-620
# [16] = system: 786-0
# [17] = system: SK-MEL-2
# [18] = system: OVCAR-4
# [19] = system: CCRF-CEM
# [20] = system: SNB-75
SMILES,GI50 [1],GI50 [2],GI50 [3],GI50 [4],GI50 [5],GI50 [6],GI50 [7],GI50 [8],GI50 [9],GI50 [10],GI50 [11],GI50 [12],GI50 [13],GI50 [14],GI50 [15],GI50 [16],GI50 [17],GI50 [18],GI50 [19],GI50 [20]
Cc1sc2nc(-c3ccc(Cl)c([N+](=O)[O-])c3)c(/C=N/NC(=N)N)n2c1C,1.79 µM (inactive),1.64 µM (inactive),2.04 µM (inactive),1.61 µM (inactive),1.35 µM (inactive),1.53 µM (inactive),1.5 µM (inactive),1.1 µM (active),1.66 µM (inactive),1.71 µM (inactive),1.75 µM (inactive),1.75 µM (inactive),1.4 µM (inactive),1.69 µM (inactive),0.247 µM (active),0.684 µM (active),1.32 µM (inactive),,,
CCOC(=O)N1CCC2(CC1)C[C@](C)(C(C)=O)C(C)O2 (some centres not stated),> 100 µM (inactive),> 100 µM (inactive),> 100 µM (inactive),> 100 µM (inactive),> 100 µM (inactive),> 100 µM (inactive),> 100 µM (inactive),> 100 µM (inactive),> 100 µM (inactive),2.81 µM (inactive),> 100 µM (inactive),> 100 µM (inactive),> 100 µM (inactive),> 100 µM (inactive),> 100 µM (inactive),> 100 µM (inactive),> 100 µM (inactive),> 100 µM (inactive),,
CC1(C)C2CC1C(/C=N\OCC(=O)O)=CC2=O (configuration not stated),> 100 µM (inactive),> 100 µM (inactive),> 100 µM (inactive),> 100 µM (inactive),> 100 µM (inactive),> 100 µM (inactive),> 100 µM (inactive),> 100 µM (inactive),> 100 µM (inactive),> 100 µM (inactive),> 100 µM (inactive),> 100 µM (inactive),> 100 µM (inactive),> 100 µM (inactive),> 100 µM (inactive),> 100 µM (inactive),> 100 µM (inactive),> 100 µM (inactive),> 100 µM (inactive),
CCOC(=S)SC/C(=N\OC(C)(C)OC)c1ccccc1,31.3 µM (inactive),> 100 µM (inactive),> 100 µM (inactive),43.8 µM (inactive),,29.1 µM (inactive),20 µM (inactive),26.9 µM (inactive),72.6 µM (inactive),20.2 µM (inactive),46.6 µM (inactive),43.7 µM (inactive),20.7 µM (inactive),48.9 µM (inactive),33.2 µM (inactive),55.1 µM (inactive),20.7 µM (inactive),69 µM (inactive),18.1 µM (inactive),0.453 µM (active)
C=C(C)[C@H]1C2=CC(C)=C(O2)[C@@H](O[C@@H]2c3oc(cc3C)[C@H](C(=C)C)[C@H]3C=C(CC[C@H]2C(=C)C)C(=O)O3)[C@H](C(=C)C)CCC2=C[C@H]1OC2=O,> 100 µM (inactive),,> 100 µM (inactive),> 100 µM (inactive),> 100 µM (inactive),> 100 µM (inactive),> 100 µM (inactive),> 100 µM (inactive),> 100 µM (inactive),> 100 µM (inactive),> 100 µM (inactive),> 100 µM (inactive),> 100 µM (inactive),> 100 µM (inactive),> 100 µM (inactive),> 100 µM (inactive),> 100 µM (inactive),> 100 µM (inactive),> 100 µM (inactive),> 100 µM (inactive)
CC1(C)CC23CC(C)(C)c4cccc(c42)OCc2ccc4ccc5ccc(nc5c4n2)COc2cccc1c23,> 50 µM (inactive),> 50 µM (inactive),> 50 µM (inactive),> 50 µM (inactive),> 50 µM (inactive),> 50 µM (inactive),> 50 µM (inactive),> 50 µM (inactive),> 50 µM (inactive),> 50 µM (inactive),> 50 µM (inactive),> 50 µM (inactive),> 50 µM (inactive),> 50 µM (inactive),> 50 µM (inactive),> 50 µM (inactive),> 50 µM (inactive),> 50 µM (inactive),,> 50 µM (inactive)
O=c1c2c3c(sc2nc2n1N=CN(c1ccc(F)cc1)C2)CCCC3,> 100 µM (inactive),,> 100 µM (inactive),> 100 µM (inactive),> 100 µM (inactive),> 100 µM (inactive),> 100 µM (inactive),> 100 µM (inactive),> 100 µM (inactive),,> 100 µM (inactive),> 100 µM (inactive),> 100 µM (inactive),> 100 µM (inactive),> 100 µM (inactive),> 100 µM (inactive),> 100 µM (inactive),> 100 µM (inactive),> 100 µM (inactive),> 100 µM (inactive)
CC1CSC(=S)N1C(=O)N1C(=S)SCC1C (configuration not stated),14.7 µM (inactive),19.3 µM (inactive),19.1 µM (inactive),26.5 µM (inactive),18.7 µM (inactive),21.9 µM (inactive),23.6 µM (inactive),36.6 µM (inactive),27.5 µM (inactive),12.1 µM (inactive),27.8 µM (inactive),40.9 µM (inactive),27.7 µM (inactive),28.8 µM (inactive),20.4 µM (inactive),27.8 µM (inactive),21.3 µM (inactive),,8.73 µM (inactive),23.4 µM (inactive)
CN(/N=C/c1ccc(Cl)c(Cl)c1)C1=NCCN1,18.6 µM (inactive),21.2 µM (inactive),37.6 µM (inactive),27.1 µM (inactive),24.8 µM (inactive),16.5 µM (inactive),13.7 µM (inactive),30.3 µM (inactive),12.1 µM (inactive),,46.2 µM (inactive),22.4 µM (inactive),21.7 µM (inactive),59 µM (inactive),16 µM (inactive),16.4 µM (inactive),18.5 µM (inactive),41.2 µM (inactive),16.7 µM (inactive),15.8 µM (inactive)
CN(C)CCn1nc(N)c2nc3cc(C(F)(F)F)ccc3nc21,> 100 µM (inactive),,> 100 µM (inactive),2.49 µM (inactive),> 100 µM (inactive),> 100 µM (inactive),33.2 µM (inactive),75.9 µM (inactive),> 100 µM (inactive),34.6 µM (inactive),> 100 µM (inactive),> 100 µM (inactive),79.4 µM (inactive),> 100 µM (inactive),81.1 µM (inactive),> 100 µM (inactive),> 100 µM (inactive),> 100 µM (inactive),79.3 µM (inactive),15.5 µM (inactive)
CN(CCc1ccc(N)cc1)[C@H]1CCCC[C@H]1N1CCCC1,> 100 µM (inactive),,> 100 µM (inactive),> 100 µM (inactive),66.7 µM (inactive),> 100 µM (inactive),98.4 µM (inactive),51.9 µM (inactive),> 100 µM (inactive),> 100 µM (inactive),> 100 µM (inactive),> 100 µM (inactive),> 100 µM (inactive),> 100 µM (inactive),> 100 µM (inactive),> 100 µM (inactive),> 100 µM (inactive),> 100 µM (inactive),,> 100 µM (inactive)
Cc1cc(C)nc(NC(=O)c2ccc(Br)s2)c1,95.3 µM (inactive),56.9 µM (inactive),> 100 µM (inactive),> 100 µM (inactive),3.3 µM (inactive),21.3 µM (inactive),> 100 µM (inactive),> 100 µM (inactive),30.5 µM (inactive),,> 100 µM (inactive),> 100 µM (inactive),> 100 µM (inactive),76.7 µM (inactive),> 100 µM (inactive),> 100 µM (inactive),> 100 µM (inactive),> 100 µM (inactive),3.37 µM (inactive),47.8 µM (inactive)
CSC(SC)=C1C(=O)N(c2ccccc2)N=C1C,27 µM (inactive),36.7 µM (inactive),31.2 µM (inactive),30.3 µM (inactive),,20.6 µM (inactive),21.7 µM (inactive),46.6 µM (inactive),29.4 µM (inactive),,22.1 µM (inactive),29.2 µM (inactive),2.75 µM (inactive),24 µM (inactive),32 µM (inactive),23.2 µM (inactive),20 µM (inactive),34.3 µM (inactive),18.5 µM (inactive),21.2 µM (inactive)
CC(=O)c1c2n(n(-c3ccccc3)c1=O)C(=O)c1nccnc1-2,> 100 µM (inactive),> 100 µM (inactive),> 100 µM (inactive),> 100 µM (inactive),> 100 µM (inactive),> 100 µM (inactive),> 100 µM (inactive),> 100 µM (inactive),> 100 µM (inactive),> 100 µM (inactive),,> 100 µM (inactive),> 100 µM (inactive),> 100 µM (inactive),> 100 µM (inactive),> 100 µM (inactive),> 100 µM (inactive),> 100 µM (inactive),,54.1 µM (inactive)
Nc1cccc2cc(S(=O)(=O)Nc3ccc(C(=O)O)cc3)ccc12,> 100 µM (inactive),,> 100 µM (inactive),> 100 µM (inactive),> 100 µM (inactive),> 100 µM (inactive),,> 100 µM (inactive),> 100 µM (inactive),> 100 µM (inactive),> 100 µM (inactive),> 100 µM (inactive),> 100 µM (inactive),> 100 µM (inactive),> 100 µM (inactive),> 100 µM (inactive),> 100 µM (inactive),> 100 µM (inactive),> 100 µM (inactive),98.2 µM (inactive)
